This note sets out measurements from patent publication US20230286973A1, “PROTEIN SECRETION INHIBITORS” (KEZAR LIFE SCIENCES, priority 2020, published 2023).

A value given as a limit tells only on which side of the number the result lay.

Series [1] in a line: Liver Microsome Stability Assay (mouse). The following applies: mouse liver microsomes, with NADPH, 1.0 uM compound. For orientation: Liver microsomes are a subcellular fraction often used to study metabolism.
Experimental: (§1) Stability of a compound was assessed in the presence of liver microsomes from various sources—mouse, rat, monkey and human liver microsomes. 1.0 uM compound, 0.4% DMSO in 0.1 M Potassium Phosphate with 1.0 mg/mL liver microsomes, were incubated at 37° C. with or without 1 mM NADPH. The samples were quenched at 0, and 30 minutes.
Series [2] deals with TNFα-FL/Gaussia Luciferase. In words: Dox Induced TNFα-FL-Gluc Assay. The following applies: for IC50: 24 hr Dox induction, 293FRT/TO cells, read-out: 24 hr Dox Inducible TNFaFLGluc 293FRT/TO: Mean IC50; for 24 hr Dox Inducible TNFaFLGluc 293FRT/TO: TNF/PD1: ratio of TNFaFLGluc IC50 to PD1ssGluc IC50. The series is classed as cell-based. An outline of the steps:
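Stereoisomer mixtures were tested where stereochemistry is not drawn. Induction used doxycycline added together with compound dilutions in DMSO/media to Flp-In 293 T-REx cells carrying a T-REx-regulated TNFα (aa 1-233)-Gaussia luciferase construct, then incubated at 37 °C, 5% CO2.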

Series [3] concerns multiple myeloma cell line U266B1. As to the kind of experiment: U266 Cell Viability Assay. In kind it is cell-based, human. The following applies: Homo sapiens, U-266, 48 h, U266B1 cells, Celltiter-Glo. An outline of the steps:
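Steps: culture in RPMI 1640 plus 10% FBS and 2 mM glutamine; plate and add compound dilutions; incubate 48 hours at 37° C., 5% CO2; add CellTiter-Glo and quantify luciferase signal.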
In general terms: ATP-based viability assays read luminescence as a measure of living cells.

Series [4] is described as follows: Liver Microsome Stability Assay (monkey). The following applies: monkey liver microsomes, with NADPH, 1.0 uM compound.
Experimental: as §1
The subject of series [5] is multiple myeloma cell line NCI-H929. As to the kind of experiment: H929 Cell Viability Assay. The series is classed as cell-based, human. The following applies: Homo sapiens, NCI-H929, 48 h, NCI-H929 cells, Celltiter-Glo. An outline of the steps: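 Luminescent ATP detection (CellTiter-Glo) after 48 hours of compound exposure measures viability. Cells were plated in RPMI 1640 containing 10% fetal bovine serum and kept at 37° C under 5% CO2.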

Series [6] is described as follows: Liver Microsome Stability Assay (human). The following applies: human liver microsomes, with NADPH, 1.0 uM compound.
Experimental: as §1
Series [7] relates to HER3-ss+4aa/Gaussia Luciferase. As to the kind of experiment: Dox-Induced Her3-ss-Gluc Assay. In kind it is cell-based. The following applies: 24 hr Dox induction; 293FRT/TO cells; read-out: 24 hr Dox Inducible Her3(ss + 4)Gluc 293FRT/TO: Mean IC50. Summed up:
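Cells were seeded a day ahead, then given compound diluted in DMSO/media with doxycycline to induce expression of the HER3 signal sequence (+4 aa)–Gaussia luciferase fusion. Incubation was at 37° C., 5% CO2, in a stable Flp-In 293 T-REx line.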

Series [8] has as its system PD1-ss+10aa/Gaussia Luciferase. In words: Dox-Induced PD1-ss-Gluc Assay. In kind it is cell-based. The following applies: 24 hr Dox induction; 293FRT/TO cells; read-out: 24 hr Dox Inducible PD1ssGluc 293FRT/TO: Mean IC50. An outline of the steps: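 Gaussia luciferase fused downstream of the PD1 signal peptide plus 10 residues was expressed on doxycycline induction in stably transfected Flp-In 293 T-REx cells. Compounds were added with doxycycline and incubated at 37 °C, 5% CO2.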

The nature of series [9]: Liver Microsome Stability Assay (rat). The following applies: rat liver microsomes, with NADPH, 1.0 uM compound.
Experimental: as §1
The subject of series [10] is IL-2-FL/Gaussia Luciferase. As to the kind of experiment: Dox Induced IL2-FL-Gluc Assay. In kind it is cell-based. The following applies: for IC50: 24 hr Dox induction, 293FRT/TO cells, read-out: 24 hr Dox Inducible IL2FLGluc 293FRT/TO: Mean IC50; for 24 hr Dox Inducible IL2FLGluc 293FRT/TO: IL2/PD1: ratio of IL2FLGluc IC50 to PD1ssGluc IC50. Summed up:
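Cells are plated one day ahead, then receive compound dilutions in DMSO/media with doxycycline and incubate at 37° C, 5% CO2. They are Flp-In 293 T-REx cells expressing a full-length IL-2 (amino acids 1-153)–Gaussia luciferase fusion under T-REx control.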

`CC(=O)Nc1ccc(N2CCC[C@@H]2c2csc(NC(=O)c3cccn3Cc3ccnc(F)c3)n2)cc1F` [Compound A93, (R)-N-(4-(1-(4-acetamido-3-fluorophenyl)pyrrolidin-2-yl)thiazol-2-yl)-1-((2-fluoropyridin-4-yl)methyl)-1H-pyrrole-2-carboxamide]: in [1], the “Liver Microsome Stability (Multiple Species): Mouse - % Remaining after 30 min w/NADPH” value is on record as 1.18%. In addition, the IC50 is 187 nM in series [2], 27.1 nM in series [7], 12.3 nM in [8] and 26.3 nM in [10]. The “24 hr Dox Inducible TNFaFLGluc 293FRT/TO: TNF/PD1” value in series [2] was found to be 15.1. Also, the concentration for a half-maximal effect (EC50) (usually the concentration giving half of the maximal effect) in series [3] was > 25000 nM; in [5], 390 nM. The “Liver Microsome Stability (Multiple Species): Monkey - % Remaining after 30 min w/NADPH” value in [4] is 0.14%. Besides, the “Liver Microsome Stability (Multiple Species): Human - % Remaining after 30 min w/NADPH” value in [6] is reported as 4.24%. For the same compound, the “Liver Microsome Stability (Multiple Species): Rat - % Remaining after 30 min w/NADPH” value in series [9] was 0.11%. Besides, in series [10], the “24 hr Dox Inducible IL2FLGluc 293FRT/TO: IL2/PD1” value is reported as 2.1.
For `[2H]c1c([2H])c([2H])c(N2CCC[C@@H]2c2csc(NC(=O)c3cccn3Cc3ccnc(F)c3)n2)c([2H])c1[2H]` [Compound A94, (R)-1-((2-fluoropyridin-4-yl)methyl)-N-(4-(1-(phenyl-d5)pyrrolidin-2-yl)thiazol-2-yl)-1H-pyrrole-2-carboxamide], the “Liver Microsome Stability (Multiple Species): Mouse - % Remaining after 30 min w/NADPH” value in series [1] was determined as 10.9%. Besides, the IC50 was found to be 168 nM in series [2], 14.5 nM in [7], 8.73 nM in series [8] and 17.8 nM in series [10]. Also, the “24 hr Dox Inducible TNFaFLGluc 293FRT/TO: TNF/PD1” value in series [2] is 19.2. Further, the EC50 in [3] was > 25000 nM; in series [5], 642 nM. The “Liver Microsome Stability (Multiple Species): Monkey - % Remaining after 30 min w/NADPH” value in series [4] is on record as 0.9%. In addition, the “Liver Microsome Stability (Multiple Species): Human - % Remaining after 30 min w/NADPH” value in series [6] stood at 11.1%. Also, the “Liver Microsome Stability (Multiple Species): Rat - % Remaining after 30 min w/NADPH” value in series [9] was determined as 12.8%. The “24 hr Dox Inducible IL2FLGluc 293FRT/TO: IL2/PD1” value in series [10] stood at 2.
Turning to `[2H]c1cc([2H])cc(N2CCC[C@@H]2c2csc(NC(=O)c3cccn3Cc3ccnc(F)c3)n2)c1` [Compound A95, (R)-1-((2-fluoropyridin-4-yl)methyl)-N-(4-(1-(phenyl-3,5-d2)pyrrolidin-2-yl)thiazol-2-yl)-1H-pyrrole-2-carboxamide], the “Liver Microsome Stability (Multiple Species): Mouse - % Remaining after 30 min w/NADPH” value in [1] is 10.2%. Further, the IC50 came to 133 nM in series [2], 14.8 nM in [7], 8.34 nM in series [8] and 18.6 nM in series [10]. Also, in series [2], the “24 hr Dox Inducible TNFaFLGluc 293FRT/TO: TNF/PD1” value came to 15.9. Moreover, the figures for the 50% effective concentration (EC50) in series [3] and in series [5] were > 25000 nM and 590 nM, respectively. In addition, the “Liver Microsome Stability (Multiple Species): Monkey - % Remaining after 30 min w/NADPH” value in series [4] came to 0.88%. In [6], the “Liver Microsome Stability (Multiple Species): Human - % Remaining after 30 min w/NADPH” value stood at 8.25%. Besides, the “Liver Microsome Stability (Multiple Species): Rat - % Remaining after 30 min w/NADPH” value in series [9] amounted to 13.9%. Moreover, the “24 hr Dox Inducible IL2FLGluc 293FRT/TO: IL2/PD1” value in [10] is given as 2.2.
With `CC(=O)Nc1cc(F)c(N2CCC[C@@H]2c2csc(NC(=O)c3cccn3Cc3ccnc(F)c3)n2)c(F)c1` [Compound A96, (R)-N-(4-(1-(4-acetamido-2,6-difluorophenyl)pyrrolidin-2-yl)thiazol-2-yl)-1-((2-fluoropyridin-4-yl)methyl)-1H-pyrrole-2-carboxamide], the “Liver Microsome Stability (Multiple Species): Mouse - % Remaining after 30 min w/NADPH” value in series [1] turned out to be 0.28%. In addition, the IC50 in series [2] worked out at 40.5 nM; in series [7] it was 4.2 nM; in series [8] it was 1.49 nM; in [10], 4.21 nM. The “24 hr Dox Inducible TNFaFLGluc 293FRT/TO: TNF/PD1” value in series [2] stood at 27.2. In addition, the half-maximal effective concentration (EC50) was > 25000 nM in [3] and 34.2 nM in series [5]. Further, the “Liver Microsome Stability (Multiple Species): Monkey - % Remaining after 30 min w/NADPH” value in series [4] was found to be 0.12%. In addition, the “Liver Microsome Stability (Multiple Species): Human - % Remaining after 30 min w/NADPH” value in series [6] was determined as 1.42%. Moreover, the “Liver Microsome Stability (Multiple Species): Rat - % Remaining after 30 min w/NADPH” value in series [9] turned out to be 1%. Moreover, the “24 hr Dox Inducible IL2FLGluc 293FRT/TO: IL2/PD1” value in series [10] worked out at 2.8.
With `CC(=O)N1CCC(C)(Oc2ccc(N3CCC[C@@H]3c3csc(NC(=O)c4cccn4Cc4ccnc(F)c4)n3)cc2)CC1` [Compound A97, (R)-N-(4-(1-(4-((1-acetyl-4-methylpiperidin-4-yl)oxy)phenyl)pyrrolidin-2-yl)thiazol-2-yl)-1-((2-fluoropyridin-4-yl)methyl)-1H-pyrrole-2-carboxamide], the “Liver Microsome Stability (Multiple Species): Mouse - % Remaining after 30 min w/NADPH” value in [1] was determined as 0.22%. The IC50 turned out to be 162 nM in series [2], 22.1 nM in series [7], 18.8 nM in series [8] and 32.8 nM in series [10]. Further, the “24 hr Dox Inducible TNFaFLGluc 293FRT/TO: TNF/PD1” value in series [2] is reported as 8.64. Moreover, the EC50 was > 25000 nM in [3] and 448 nM in [5]. In series [4], the “Liver Microsome Stability (Multiple Species): Monkey - % Remaining after 30 min w/NADPH” value turned out to be 0.4%. In addition, the “Liver Microsome Stability (Multiple Species): Human - % Remaining after 30 min w/NADPH” value in [6] was found to be 6.01%. For the same compound, in [9], the “Liver Microsome Stability (Multiple Species): Rat - % Remaining after 30 min w/NADPH” value turned out to be 42.4%. In addition, the “24 hr Dox Inducible IL2FLGluc 293FRT/TO: IL2/PD1” value in series [10] was determined as 1.7.
For `CC(=O)Nc1ccc(N2CCC[C@@H]2c2csc(NC(=O)c3cccn3Cc3ccnc(F)c3)n2)c(F)c1` [Compound A98, (R)-N-(4-(1-(4-acetamido-2-fluorophenyl)pyrrolidin-2-yl)thiazol-2-yl)-1-((2-fluoropyridin-4-yl)methyl)-1H-pyrrole-2-carboxamide], the “Liver Microsome Stability (Multiple Species): Mouse - % Remaining after 30 min w/NADPH” value in series [1] was determined as 1.29%. The IC50 in series [2] came out at 20.1 nM; in series [7] it was 2.05 nM; in series [8] it was 0.91 nM; in series [10], 2.25 nM. The “24 hr Dox Inducible TNFaFLGluc 293FRT/TO: TNF/PD1” value in [2] is listed as 22.2. Further, the EC50 in [3] is > 25000 nM; in series [5], 22.4 nM. Besides, the “Liver Microsome Stability (Multiple Species): Monkey - % Remaining after 30 min w/NADPH” value in series [4] was found to be 0.48%. In series [6], the “Liver Microsome Stability (Multiple Species): Human - % Remaining after 30 min w/NADPH” value came to 2.43%. Also, the “Liver Microsome Stability (Multiple Species): Rat - % Remaining after 30 min w/NADPH” value in [9] turned out to be 1.18%. Also, the “24 hr Dox Inducible IL2FLGluc 293FRT/TO: IL2/PD1” value in [10] amounted to 2.5.
Regarding `CC(=O)Nc1c(F)cc(N2CCC[C@@H]2c2csc(NC(=O)c3cccn3Cc3ccnc(F)c3)n2)cc1F` [Compound A99, (R)-N-(4-(1-(4-acetamido-3,5-difluorophenyl)pyrrolidin-2-yl)thiazol-2-yl)-1-((2-fluoropyridin-4-yl)methyl)-1H-pyrrole-2-carboxamide], in series [1], the “Liver Microsome Stability (Multiple Species): Mouse - % Remaining after 30 min w/NADPH” value is listed as 1.28%. Also, the IC50 in series [2] is 5910 nM; in series [7] it was 284 nM; in [8] it was 127 nM; in series [10] it was 348 nM. Besides, the “24 hr Dox Inducible TNFaFLGluc 293FRT/TO: TNF/PD1” value in series [2] worked out at 46.7. The 50% effective concentration (EC50) was > 25000 nM in series [3] and 5300 nM in [5]. Moreover, the “Liver Microsome Stability (Multiple Species): Monkey - % Remaining after 30 min w/NADPH” value in series [4] was 0.12%. The “Liver Microsome Stability (Multiple Species): Human - % Remaining after 30 min w/NADPH” value in [6] was 1.85%. Moreover, in [9], the “Liver Microsome Stability (Multiple Species): Rat - % Remaining after 30 min w/NADPH” value was found to be 0.49%. Moreover, the “24 hr Dox Inducible IL2FLGluc 293FRT/TO: IL2/PD1” value in [10] is given as 2.8.
